Test results reported in patent US7834019B2, “Substituted pyrazolo[3,4-d]pyrimidinone derivatives” (Banyu Pharmaceutical Co., Ltd., priority 2006, dated 2010).

Tests used:
[1] = test system: Cdc2 (Cdk1) tyrosine 15-phosphorylation; test: Cdc2 (Cdk1) tyrosine 15-phosphorylation-inhibitory effect in WiDr cells + gemcitabine (ELISA); assay type: cell-based; conditions: Homo sapiens, gemcitabine 100 nM for 24 hours, then test compound with nocodazole for 8 hours, read-out: Cdc2-Y15 Phosphorylation-Inhibitory Effect (WiDr, + gemcitabine) (EC50)
From the text: Pharmaceutical Text 2 (Method of Determining Drug Potency in Cells (Cdc2 (Cdk1) Tyrosine 15-Phosphorylation-Inhibitory Effect))
Fetal bovine serum (FBS) was obtained from Morgate; media RPMI1640 and DMEM were from Invitrogen; camptothecin was from Sigma; gemcitabine was from Nippon Eli Lilly; nocodazole and protease inhibitor cocktail were from Sigma; rabbit anti-Cdc2 antibody and mouse anti-Cdc2 antibody were from Santa Cruz Biotechnology; rabbit anti-tyrosine 15-phosphorylated Cdc2 antibody and horseradish peroxidase-labeled anti-mouse IgG antibody were from Cell Signaling Technology; sure blue reserve TMB peroxidase substrate was from Kirkegaard and Perry Laboratories. […]
In the method of using WiDr cells, the cells were suspended in DMEM containing 10% FBS, and the cell suspension was applied to a 96-well Nunclondelta-processed plastic plate in an amount of 2000 cells/100 μL/well, in which the cells were incubated overnight in 5% CO2-95% air at 37° C. […] Cdc2 was determined through ELISA as follows: A rabbit anti-Cdc2 antibody solution, which had been diluted 200-fold with 50 mM carbonate-bicarbonate buffer (pH 9.6), was applied to a 96-well maxisorp plastic plate in an amount of 50 μL/well, and statically kept overnight at 4° C. so as to fix the antibody on the plate. […]

[2] = test system: Human colon cancer cells (WiDr); test: Checkpoint escape effect in WiDr cells + gemcitabine (phosphorylated histone H3-positive cells); assay type: cell-based; conditions: gemcitabine 100 nM for 24 hours, then test compound with nocodazole for 8 hours
From the text: Pharmaceutical Text 3 (Method of Determining Drug Potency in Cells (Checkpoint-Removing Effect))
Fetal bovine serum (FBS) was obtained from Morgate; DMEM was from Invitrogen; gemcitabine was from Nippon Eli Lilly; nocodazole and 4′,6-diamidino-2-phenylindole were from Sigma; rabbit anti-phosphorylated histone H3 antibody was from Upstate; and fluorescence-labeled (Alexa Fluor 488) anti-rabbit IgG antibody was from Molecular Probe.
Human colon cancer cells (WiDr) were obtained from American Type Culture Collection (ATCC).
The cells were suspended in DMEM containing 10% FBS, and the cell suspension was applied to a poly-D-lysine-coated 96-well plastic plate (bought from Becton Dickinson) in an amount of 2000 cells/100 μL/well, in which the cells were incubated overnight in 5% CO2-95% air at 37° C. […] Next, this was washed with PBS, and a solution containing 4′,6-diamidino-2-phenylindole that had been diluted with 1% BSA/PBS to have a concentration 10 μg/mL and a fluorescence-labeled (Alexa Fluor 488) anti-rabbit IgG antibody that had been diluted 250-fold was added to it in an amount 50 μL/well, and reacted in a dark place at room temperature for 60 minutes. Finally, this was washed with PBS, and its fluorescence intensity was determined to calculate the ratio of the phosphorylated histone H3-positive cells (cells that had been in a cell division cycle through removal of checkpoint). […]

- EC50 [1]: 119 nM
- EC50 [2]: 210 nM
Structure (SMILES): C=CCn1c(=O)c2cnc(Nc3ccc(N4CCN(C)CC4)cc3)nc2n1-c1cccc(C(C)(C)O)n1 [Example 53, 2-allyl-1-[6-(1-hydroxy-1-methylethyl)pyridin-2-yl]-6-{[4-(4-methylpiperazin-1-yl)phenyl]amino}-1,2-dihydro-3H-pyrazolo[3,4-d]pyrimidin-3-one]
